The subject of test [1] is E. coli Imp4213 (BAS3023). The experiment in a line: MIC, microdilution in Mueller-Hinton Broth. It counts as cell-based. As to conditions: for MIC: Escherichia coli, read-out: Whole cell based antibacterial activity (MIC) E. coli Imp4213 (BAS3023), membrane permeable imp mutant; for Whole cell based antibacterial activity (MIC) E. coli Imp4213 (BAS3023): membrane permeable imp mutant. A general note: In broth dilution the organism is exposed to a series of concentrations in liquid medium.

For a further test, the system named is E. coli (MG1655) WT. The test can be described thus: MIC, microdilution in Mueller-Hinton Broth. As to conditions: wild type, read-out: Whole cell based antibacterial activity (MIC) E. coli (MG1655) WT.
In another test the target is E. coli topoisomerase I (Escherichia coli (strain K12), UniProt P06612). The experiment in a line: biochemical. The format is biochemical. How it is done: Recombinant E. coli topoisomerase I and gyrase expressed in E. coli were purified as described previously.
E. coli Topoisomerase I Relaxation Activity Inhibition Assay
The relaxation activity of E. coli topoisomerase I was assayed in a buffer containing 10 mM Tris-HCl, pH 8.0, 50 mM NaCl, 0.1 mg/mL gelatin, and 0.5 mM MgCl2. Half microliter from the appropriate stock solutions of compounds dissolved in the solvent (DMSO) or the solvent alone (control) was mixed with 9.5 μL of the reaction buffer containing 10 ng of enzyme before the addition of 10 μL of reaction buffer containing 200 ng of supercoiled pBAD/Thio plasmid DNA purified by cesium chloride gradient as substrate. Following incubation at 37° C. for 30 min, the reactions were terminated by the addition of 4 μL of a stop buffer (50% glycerol, 50 mM EDTA, and 0.5% (v/v) bromophenol blue), and analyzed by agarose gel electrophoresis. The gels were stained in ethidium bromide and photographed under UV light.

In test [2] the test system is B. subtilis (ATCC 6633) WT. The test can be described thus: MIC, microdilution in Mueller-Hinton Broth. As to conditions: read-out: Whole cell based antibacterial activity (MIC) B. subtilis (ATCC 6633) WT.
Another test deals with Human topoisomerase I (Homo sapiens (Human), UniProt P11387). The test can be described thus: Human topoisomerase I relaxation inhibition assay. It counts as biochemical. Particulars: read-out: Topoisomerase inhibitory activity (IC50) Human topo I (type IB). On the procedure:
Human topoisomerase I relaxation assays were carried out with 0.5 U of enzyme in reaction buffer supplied by the manufacturer. The enzyme was mixed with the indicated concentration of compound dissolved before 200 ng of supercoiled pBAD/Thio plasmid DNA was added in the same buffer, for a final volume of 20 μL. Following incubation at 37° C. for 30 minutes, the reactions were terminated with a buffer containing 5% SDS, 0.25% bromophenol blue, and 25% glycerol, and analyzed by agarose gel electrophoresis.
Human topoisomerase I and topoisomerase IIα were purchased from TopoGen (Buena vista, CO, USA).

Another test has as its system Vero cells. The test can be described thus: Vero cell cytotoxicity assay. The format is cell-based. Particulars: Chlorocebus sabaeus, Vero; cytotoxicity. On the procedure:
MICs of compounds against M. tuberculosis were determined by a modified microplate Alamar blue assay (MABA). Vero cell cytotoxicity assay was performed as previously described.

Another test deals with M. tuberculosis (H37Rv). The experiment in a line: MIC, microplate Alamar blue assay (MABA). As to conditions: MABA, read-out: Whole cell based antibacterial activity (MIC) M. tuberculosis (H37Rv). The format is cell-based. A general note: The colour change of resazurin is a common sign of viable cells or microbes.
The mark [3] stands for this setting: experimental, converted from IC50.
The mark [4] stands for this setting: Table 3, E. coli topoisomerase I, single values set for ranges and bounds, read-out: IC50 (μM) used for CoMFA.
Setting [5] is: relaxation of supercoiled plasmid DNA, read-out: Topoisomerase inhibitory activity (IC50) E. coli topo I (type IA).
The mark [6] stands for this setting: Bacillus subtilis, ATCC6633, wild type.
[7] abbreviates: Topoisomerase inhibitory activity (IC50) E. coli topo I (type IA), relaxation of supercoiled plasmid DNA.

≈ marks a conversion by molar mass, not a printed value. Read-outs that look alike come from different tables or passages of the source.

By MIC is commonly meant the least concentration at which growth counts as inhibited. As a reminder, the IC50 is the concentration that gives 50% inhibition.

Sequence of E. coli topoisomerase I (P06612 whole entry, looked up): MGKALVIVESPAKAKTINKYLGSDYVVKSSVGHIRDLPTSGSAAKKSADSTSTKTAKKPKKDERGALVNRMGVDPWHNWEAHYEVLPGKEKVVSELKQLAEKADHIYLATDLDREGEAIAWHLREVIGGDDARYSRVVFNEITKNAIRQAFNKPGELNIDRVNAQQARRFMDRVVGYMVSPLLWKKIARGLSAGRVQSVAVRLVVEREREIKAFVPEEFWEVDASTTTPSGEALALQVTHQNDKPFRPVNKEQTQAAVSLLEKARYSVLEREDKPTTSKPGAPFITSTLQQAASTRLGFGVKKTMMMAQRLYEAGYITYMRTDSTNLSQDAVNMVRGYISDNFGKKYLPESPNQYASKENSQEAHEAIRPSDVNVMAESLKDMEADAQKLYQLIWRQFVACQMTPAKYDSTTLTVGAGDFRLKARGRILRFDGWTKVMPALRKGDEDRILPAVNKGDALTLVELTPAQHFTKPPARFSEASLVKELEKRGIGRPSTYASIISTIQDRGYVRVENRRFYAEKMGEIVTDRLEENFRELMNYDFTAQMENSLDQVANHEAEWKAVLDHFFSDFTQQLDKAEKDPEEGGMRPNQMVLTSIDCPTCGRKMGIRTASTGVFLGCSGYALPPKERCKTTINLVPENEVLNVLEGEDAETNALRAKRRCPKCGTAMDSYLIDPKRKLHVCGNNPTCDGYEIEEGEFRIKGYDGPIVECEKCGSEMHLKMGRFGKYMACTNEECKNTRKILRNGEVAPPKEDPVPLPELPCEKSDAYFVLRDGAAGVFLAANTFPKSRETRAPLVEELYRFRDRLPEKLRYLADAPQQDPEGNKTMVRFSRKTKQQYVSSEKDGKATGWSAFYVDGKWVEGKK
Sequence of Human topoisomerase I (P11387 whole entry): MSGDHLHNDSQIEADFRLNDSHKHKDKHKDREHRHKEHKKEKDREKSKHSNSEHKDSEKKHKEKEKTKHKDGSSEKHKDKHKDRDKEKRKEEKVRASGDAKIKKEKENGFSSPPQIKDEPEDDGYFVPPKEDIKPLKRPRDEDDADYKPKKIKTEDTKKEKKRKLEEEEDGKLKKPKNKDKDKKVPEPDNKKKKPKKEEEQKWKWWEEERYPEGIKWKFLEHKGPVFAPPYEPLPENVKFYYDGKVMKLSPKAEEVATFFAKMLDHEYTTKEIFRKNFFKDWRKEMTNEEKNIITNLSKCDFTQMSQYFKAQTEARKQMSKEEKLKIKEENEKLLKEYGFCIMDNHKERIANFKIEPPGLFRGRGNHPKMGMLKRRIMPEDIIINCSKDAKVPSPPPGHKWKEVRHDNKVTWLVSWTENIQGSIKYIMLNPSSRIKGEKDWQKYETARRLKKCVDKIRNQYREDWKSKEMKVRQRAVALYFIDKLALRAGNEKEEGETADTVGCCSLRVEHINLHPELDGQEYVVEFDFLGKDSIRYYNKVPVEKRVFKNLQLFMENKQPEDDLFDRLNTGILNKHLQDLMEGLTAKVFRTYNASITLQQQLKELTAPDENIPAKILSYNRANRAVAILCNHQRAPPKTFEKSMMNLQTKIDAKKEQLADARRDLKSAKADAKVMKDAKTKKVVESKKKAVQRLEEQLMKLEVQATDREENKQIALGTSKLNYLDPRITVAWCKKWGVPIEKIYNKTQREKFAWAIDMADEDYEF

For `CCOC(=O)c1cn2c3c(c(F)c(F)cc3c1=O)Oc1cc([N+](=O)[O-])ccc1-2` [Compound 6a, Ethyl 5,6-difluoro-9-nitro-3-oxo-3H-pyrido[3,2,1-kl]phenoxazine-2-carboxylate], the MIC in test [1] was 50 µM (≈ 19.4 µg/mL); in the test on E. coli (MG1655) WT (Escherichia coli, MG1655), > 200 µM. Moreover, the “PIC50 (pIC50 = −log IC50)” value on E. coli topoisomerase I (setting [3]) was 4.81.
On to `CCOC(=O)c1cn2c3c(c(F)c(F)cc3c1=O)Oc1cc(C#N)ccc1-2` [Compound 6b, Ethyl 9-cyano-5,6-difluoro-3-oxo-3H-pyrido[3,2,1-kl]phenoxazine-2-carboxylate], for which the MIC in the test on E. coli (MG1655) WT (Escherichia coli, MG1655) is > 200 µM. Also, the “PIC50 (pIC50 = −log IC50)” value on E. coli topoisomerase I (setting [3]) is 4.51.
Turning to `CCOC(=O)c1cn2c3c(c(F)c(F)cc3c1=O)Oc1cc(C(F)(F)F)ccc1-2` [Compound 6c, Ethyl 5,6-difluoro-3-oxo-9-(trifluoromethyl)-3H-pyrido[3,2, I-kl]phenoxazine-2-carboxylate], the MIC (in test [2] (wild type); in the test with E. coli (MG1655) WT) was >200 µM in each case. The “Whole cell based antibacterial activity (MIC) E. coli Imp4213 (BAS3023)” value (from here on “Whole cell based antibacterial activity”) in test [1] is >200 µM. In addition, the “activity against topoisomerase I when tested at 125 μM” value on E. coli topoisomerase I is “inactive”. In addition, the IC50 on E. coli topoisomerase I (setting [4]) is 250 µM; on E. coli topoisomerase I (setting [5]), > 125 µM. Moreover, the “PIC50 (pIC50 = −log IC50)” value on E. coli topoisomerase I (setting [3]) worked out at 3.60.
On to `O=C(O)c1cn2c3c(c(F)c(F)cc3c1=O)Oc1cc([N+](=O)[O-])ccc1-2` [Compound 7a, 5,6-Difluoro-9-nitro-3-oxo-3H-pyrido[3,2,1-kl]phenoxazine-2-carboxylic acid], for which the MIC in test [1] was determined as 0.78 µM (≈ 0.281 µg/mL); in the test with E. coli (MG1655) WT (Escherichia coli, MG1655) it was 200 µM (≈ 72 µg/mL). In addition, the “PIC50 (pIC50 = −log IC50)” value on E. coli topoisomerase I (setting [3]) is 4.81.
As to `N#Cc1ccc2c(c1)Oc1c(F)c(F)cc3c(=O)c(C(=O)O)cn-2c13` [Compound 7b, 9-Cyano-5,6-d fluoro-3-oxo-3H-pyrido[3,2,1-d]phenoxazine-2-carboxylic acid], the MIC (in test [2] (wild type); in the test on E. coli (MG1655) WT) was >200 µM throughout. Further, the “Whole cell based antibacterial activity” value in test [1] is 200 µM. The IC50 on E. coli topoisomerase I (setting [4]) and on E. coli topoisomerase I (setting [5]) was 31.2 µM in each case. Further, the “PIC50 (pIC50 = −log IC50)” value at E. coli topoisomerase I (setting [3]) worked out at 4.51.
Take `O=C(O)c1cn2c3c(c(F)c(F)cc3c1=O)Oc1cc(C(F)(F)F)ccc1-2` [Compound 7c, 5,6-Difluoro-3-oxo-9-(trifluoromethyl)-3H-pyrido[3,2,1-kl]phenoxazine-2-carboxylic acid]: the MIC in the test on E. coli (MG1655) WT (Escherichia coli, MG1655) is > 200 µM. The “activity against topoisomerase I when tested at 125 μM” value on E. coli topoisomerase I is “inactive”. Moreover, the IC50 on E. coli topoisomerase I (IC50 (μM) used for CoMFA, Table 3, E. coli topoisomerase I, single values set for ranges and bounds) is 250 µM; against E. coli topoisomerase I (PIC50 (pIC50 = −log IC50), experimental, converted from IC50), 245 µM; on E. coli topoisomerase I (setting [5]) it was > 125 µM.
With `CC(=O)c1ccc2c(c1)Oc1c(F)c(F)cc3c(=O)c(C(=O)O)cn-2c13` [Compound 7d, 9-A cetyl-5,6-difluoro-3-oxo-3H-pyrido[3,2,1-kl]phenoxazine-2-carboxylic acid], the minimum inhibitory concentration (MIC) was > 200 µM in test [2] (setting [6]) and > 200 µM with E. coli (MG1655) WT (Escherichia coli, MG1655). The “PIC50 (pIC50 = −log IC50)” value at E. coli topoisomerase I (setting [3]) is on record as 4.81.
As for `CCOC(=O)c1cn2c3c(c(N4CCN(C)CC4)c(F)cc3c1=O)Oc1cc([N+](=O)[O-])ccc1-2` [Compound 9, Ethyl-5-fluoro-6-(4-methylpiperazin-1-yl)-9-nitro-3-oxo-3H-pyrido[3,2,1-kl]phenoxazine-2-carboxylate], the MIC in test [1] was 25 µM (≈ 11.7 µg/mL); in the test on E. coli (MG1655) WT (Escherichia coli, MG1655), > 200 µM. For the same molecule, the “PIC50 (pIC50 = −log IC50)” value at E. coli topoisomerase I (setting [3]) was found to be 5.71.
In the case of `O=C(O)c1cn2c3c(c(N4CCNCC4)c(F)cc3c1=O)Oc1cc([N+](=O)[O-])ccc1-2` [Compound 10b, 5-Fluoro-9-nitro-3-oxo-6-(piperazin-1-yl)-3H-pyrido[3,2,1-kl]phenoxazine-2-carboxylic acid], the MIC in test [2] (setting [6]) is > 200 µM; in the test with E. coli (MG1655) WT (Escherichia coli, MG1655) it was > 200 µM. The “PIC50 (pIC50 = −log IC50)” value on E. coli topoisomerase I (setting [3]) stood at 5.41.
As to `Nc1ccc2c(c1)Oc1c(N3CCNCC3)c(F)cc3c(=O)c(C(=O)O)cn-2c13` [Compound 11b, 9-Amino-5-fluoro-3-oxo-6-(piperazin-1-yl)-3H-pyrido[3,2,1-kl]phenoxazine-2-carboxylic acid], the MIC in test [1] was 0.39 µM (≈ 0.155 µg/mL); in the test on E. coli (MG1655) WT (Escherichia coli, MG1655), > 200 µM. Besides, the IC50 at Human topoisomerase I was 7.8 µM; at E. coli topoisomerase I (setting [7]), 0.24 to 0.97 µM; in the test with Vero cells, > 126 µM. Moreover, the “PIC50 (pIC50 = −log IC50)” value on E. coli topoisomerase I (setting [3]) came to 6.62.
As to `CC1CCN(c2c(F)cc3c(=O)c(C(=O)O)cn4c3c2Oc2cc(N)ccc2-4)CC1` [Compound 11c, 9-Amino-5-fluoro-6-(4-methylpiperidin-1-yl)-3-oxo-3H-pyrido[3,2,1-kl]phenoxazine-2-carboxylic acid], the MIC in test [1] was 3.12 µM (≈ 1.28 µg/mL); in the test on E. coli (MG1655) WT (Escherichia coli, MG1655), > 200 µM. The molecule further displayed an IC50 against E. coli topoisomerase I (setting [7]) of 3.9 to 15.6 µM. Besides, the “PIC50 (pIC50 = −log IC50)” value on E. coli topoisomerase I (setting [3]) turned out to be 5.41.
In the same order, the values of `Nc1ccc2c(c1)Oc1c(NC3CCCCC3)c(F)cc3c(=O)c(C(=O)O)cn-2c13` [Compound 11i, 9-Amino-6-(cyclohexylamino)-5-fluoro-3-oxo-3H-pyrido[3,2,1-kl]phenoxazine-2-carboxylic acid] are 25 µM (≈ 10.2 µg/mL), > 200 µM, 3.9 to 15.6 µM and 5.41.
For `Nc1ccc2c(c1)Oc1c(NC3CCCC3)c(F)cc3c(=O)c(C(=O)O)cn-2c13` [Compound 11j, 9-Amino-6-(cyclopentylamino)-5-fluoro-3-oxo-3H-pyrido[3,2,1-kl]phenoxazine-2-carboxylic acid], in that order: 25 µM (≈ 9.88 µg/mL), > 200 µM, 3.9 to 15.6 µM and 5.41.
With `CCCCCCNc1c(F)cc2c(=O)c(C(=O)O)cn3c2c1Oc1cc(N)ccc1-3` [Compound 11k, 9-Amino-5-fluoro-6-(hexylamino)-3-oxo-3H-pyrido[3,2,1-kl]phenoxazine-2-carboxylic acid], the MIC is > 200 µM in test [2] (setting [6]) and > 200 µM with E. coli (MG1655) WT (Escherichia coli, MG1655). The molecule further registered an IC50 at E. coli topoisomerase I (setting [7]) of 3.9 to 15.6 µM. Besides, the “PIC50 (pIC50 = −log IC50)” value on E. coli topoisomerase I (setting [3]) is given as 4.81.
For `CC(=O)Nc1ccc2c(c1)Oc1c(F)c(F)cc3c(=O)c(C(=O)O)cn-2c13` [Compound 12, 9-acetamido-5,6-difluoro-3-oxo-3H-pyrido[3,2,1-kl]phenoxazine-2-carboxylic acid], the MIC is > 200 µM in test [2] (setting [6]) and > 200 µM in the test on E. coli (MG1655) WT (Escherichia coli, MG1655). Further, the “PIC50 (pIC50 = −log IC50)” value on E. coli topoisomerase I (setting [3]) amounted to 5.11.
For the molecule `CC(C)(C)OC(=O)N[C@H]1CCN(c2c(F)cc3c(=O)c(C(=O)O)cn4c3c2Oc2cc(N)ccc2-4)C1` [Compound 15a, (S)-9-amino-6-(3-((tert-butoxycarbonyl)amino)pyrrolidin-1-yl)-S-fluoro-3-oxo-3H-pyrido[3,2,1-kl]phenoxazine-2-carboxylic acid], the MIC was 12.5 µM (≈ 6.21 µg/mL) in test [2] (wild type) and >200 µM with E. coli (MG1655) WT. Also, the “Whole cell based antibacterial activity” value in test [1] amounted to 12.5 µM. The IC50 at E. coli topoisomerase I (setting [4]) and on E. coli topoisomerase I (setting [5]) was 3.9 µM throughout. Besides, at E. coli topoisomerase I (setting [3]), the “PIC50 (pIC50 = −log IC50)” value was found to be 5.41.
`Nc1ccc2c(c1)Oc1c(N3CC[C@@H](N)C3)c(F)cc3c(=O)c(C(=O)O)cn-2c13` [Compound 17b, (R)-9-amino-6-(3-aminopyrrolidin-1-yl)-5-fluoro-3-oxo-3H-pyrido[3,2,1-kl]phenoxazine-2-carboxylic acid]: the MIC in test [1] was 6.25 µM (≈ 2.48 µg/mL); in the test on M. tuberculosis (H37Rv), >63.1 µM; with M. tuberculosis (H37Rv) (Mycobacterium tuberculosis, H37RV) it was > 63.1 µM; in the test on E. coli (MG1655) WT (Escherichia coli, MG1655), > 200 µM. In addition, at E. coli topoisomerase I (setting [3]), the “PIC50 (pIC50 = −log IC50)” value came out at 6.14. Also, the IC50 in the test with Vero cells is > 63.1 µM.

The values above are taken from patent US10266550B2, “Bacterial topoisomerase I inhibitors with antibacterial activity” (The Florida International University Board of Trustees, priority 2016, dated 2019).
